Laboratory results published in the supplement of paper PMC10307832.

What was measured:
Assay in all cases: relative viability (nuclei count vs DMSO), 5 days (fraction); higher = more cells survive
BX 795 + Pictilisib = compound: O=C(NCCCNc1nc(Nc2cccc(NC(=O)N3CCCC3)c2)ncc1I)c1cccs1 [BX 795] + CS(=O)(=O)N1CCN(Cc2cc3nc(-c4cccc5[nH]ncc45)nc(N4CCOCC4)c3s2)CC1 [Pictilisib] (partner 1 µM)
Procedure, shortened: (§1)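 A single step with final 0.05% Triton X-100, 1% formaldehyde and 1 ug/ml Hoechst fixed the cells and stained nuclei 5 days after treatment. Lung cancer cell lines in 1536-well plates had been treated by pin tool the day after seeding with one drug alone or a fixed anchor-drug dose plus five library-drug doses (not always all listed) in √10 steps, and nuclei were counted on 4× images. Relative viability is the ratio of nuclei in treated wells to nuclei in vehicle wells, taken as the median of duplicate plates.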

BX 795 + Crizotinib = compound: O=C(NCCCNc1nc(Nc2cccc(NC(=O)N3CCCC3)c2)ncc1I)c1cccs1 [BX 795] + C[C@@H](Oc1cc(-c2cnn(C3CCNCC3)c2)cnc1N)c1c(Cl)ccc(F)c1Cl [Crizotinib] (partner 1 µM)
Procedure, shortened: as §1

BX 795 + Dasatinib = compound: O=C(NCCCNc1nc(Nc2cccc(NC(=O)N3CCCC3)c2)ncc1I)c1cccs1 [BX 795] + Cc1nc(Nc2ncc(C(=O)Nc3c(C)cccc3Cl)s2)cc(N2CCN(CCO)CC2)n1 [Dasatinib] (partner 0.075 µM)
Procedure, shortened: as §1

BX 795 + Phenformin = compound: O=C(NCCCNc1nc(Nc2cccc(NC(=O)N3CCCC3)c2)ncc1I)c1cccs1 [BX 795] + N=C(N)NC(=N)NCCc1ccccc1 [Phenformin] (partner 250 µM)
Procedure, shortened: as §1

BX 795 + Vorinostat = compound: O=C(NCCCNc1nc(Nc2cccc(NC(=O)N3CCCC3)c2)ncc1I)c1cccs1 [BX 795] + O=C(CCCCCCC(=O)Nc1ccccc1)NO [Vorinostat] (partner 1 µM)
Procedure, shortened: as §1

Cell Line | relative viability (BX 795 + Pictilisib; first compound 0.04 µM) | relative viability (BX 795 + Pictilisib; first compound 0.1265 µM) | relative viability (BX 795 + Pictilisib; first compound 0.4 µM) | relative viability (BX 795 + Pictilisib; first compound 1.265 µM) | relative viability (BX 795 + Crizotinib; first compound 0.04 µM) | relative viability (BX 795 + Crizotinib; first compound 0.1265 µM) | relative viability (BX 795 + Crizotinib; first compound 0.4 µM) | relative viability (BX 795 + Crizotinib; first compound 1.265 µM) | relative viability (BX 795 + Dasatinib; first compound 0.04 µM) | relative viability (BX 795 + Dasatinib; first compound 0.1265 µM) | relative viability (BX 795 + Dasatinib; first compound 0.4 µM) | relative viability (BX 795 + Dasatinib; first compound 1.265 µM) | relative viability (BX 795 + Phenformin; first compound 0.04 µM) | relative viability (BX 795 + Phenformin; first compound 0.1265 µM) | relative viability (BX 795 + Phenformin; first compound 0.4 µM) | relative viability (BX 795 + Phenformin; first compound 1.265 µM) | relative viability (BX 795 + Vorinostat; first compound 0.04 µM) | relative viability (BX 795 + Vorinostat; first compound 0.1265 µM) | relative viability (BX 795 + Vorinostat; first compound 0.4 µM) | relative viability (BX 795 + Vorinostat; first compound 1.265 µM)
201T | 0.689 | 0.679 | 0.721 | 0.68 | 1.06 | 1.03 | 1.1 | 1.03 | 0.627 | 0.617 | 0.629 | 0.635 | 0.47 | 0.421 | 0.464 | 0.421 | 1.06 | 0.991 | 1.23 | 1.12
A549 | 0.51 | 0.47 | 0.449 | 0.134 | 0.725 | 0.71 | 0.777 | 0.128 | – | – | – | – | 0.23 | 0.15 | 0.271 | 0.112 | – | – | – | –
A-427 | 0.723 | 0.805 | 0.651 | 0.585 | 0.906 | 0.924 | 0.771 | 0.446 | 0.796 | 0.611 | 0.709 | 0.545 | 0.284 | 0.236 | 0.277 | 0.177 | 0.915 | 0.812 | 0.872 | 0.754
ABC-1 | 0.507 | 0.555 | 0.634 | 0.661 | 1.2 | 1.23 | 1.03 | 0.3 | 0.522 | 0.618 | 0.557 | 0.546 | 0.263 | 0.265 | 0.262 | 0.195 | 0.961 | – | 1.24 | 0.922
BEN | 0.542 | 0.587 | 0.533 | 0.715 | 0.984 | 1.02 | 0.787 | 0.821 | 0.334 | 0.315 | 0.367 | 0.299 | 0.235 | 0.278 | 0.245 | 0.21 | 0.591 | 0.559 | 0.582 | 0.526
CAL-12T | 0.543 | 0.452 | 0.368 | 0.32 | 0.562 | 0.426 | 0.309 | 0.333 | 0.521 | 0.387 | 0.281 | 0.129 | 0.599 | 0.591 | 0.447 | 0.212 | 0.661 | 0.715 | 0.523 | 0.413
COR-L23 | 0.909 | 0.899 | 0.75 | 0.538 | 0.724 | 0.703 | 0.466 | 0.204 | 0.533 | 0.496 | 0.382 | 0.298 | 0.391 | 0.411 | 0.431 | 0.234 | 0.379 | 0.458 | 0.205 | 0.106
COR-L 105 | 0.376 | 0.381 | 0.359 | 0.328 | 0.789 | 0.588 | 0.56 | 0.279 | 0.367 | 0.357 | 0.278 | 0.255 | 0.42 | 0.531 | 0.407 | 0.351 | 0.835 | 0.702 | 0.622 | 0.429
ChaGo-K-1 | 0.615 | 0.52 | 0.735 | 0.776 | 1.11 | 1.14 | 1.05 | 0.961 | 0.5 | 0.586 | 0.507 | 0.546 | 0.449 | 0.471 | 0.494 | 0.472 | 0.809 | 0.771 | 0.725 | 0.668
